Measured values published in article PMC8398766, “Do Small Molecules Activate the TrkB Receptor in the Same Manner as BDNF? Limitations of Published TrkB Low Molecular Agonists and Screening for Novel TrkB Orthosteric Agonists” (Pharmaceuticals, 2021).
“Also recorded” adds a separate entry of the source.

B1: BDNF: Brain-derived neurotrophic factor, endogenous TrkB receptor agonist (protein, UniProt P23560 19-247, looked up)
Neurotrophic factor BDNF …: APMKEANIRGQGGLAYPGVRTHGTLESVNGPKAGSRGLTSLADTFEHVIEELLDEDQKVRPNEENNKDADLYTSRVMLSSQVPLEPPLLFLLEEYKNYLDAANMSMRVRRHSDPARRGELSVCDSISEWVTAADKKTAVDMSGGTVTVLEKVPVSKGQLKQYFYETKCNPMGYTKEGCRGIDKRHWNSQCRTTQSYVRALTMDSKKRIGWRFIRIDTSCVCTLTIKRGR

Experiments:
Type in all cases: cell-based
[1] = system: TrkB and downstream proteins (PLCγ1, Akt1, ERK1/2); test: Downstream signaling immunoblot, SN56 T48 cell line; conditions: for Phosphorylation of TrkB and downstream proteins (PLCγ1, Akt1, ERK1/2): compounds up to 100 μM, BDNF up to 100 ng/mL, 15 min
Description: The SN56 T48 cell line with stable overexpression of the TrkB receptor was purchased from Emory University (Atlanta, GA, USA) and cultivated according to the protocol described in Jang et al., 2010 [12]. The cell lines were cultivated with the following reagents: DMEM High Glucose, fetal bovine serum (FBS), Penicillin-Streptomycin Solution 100×, and Trypsin-EDTA 1×; all were purchased from Biowest, and G418 was from ThermoFisher Scientific. For the ELFI experiments, cells were seeded (8000/well) on a PDL-treated 96-well plate (BioCoat™, Corning Inc., Corning, NY, USA) and 6-well plate (400,000/well) for lysate collection and immunoblot analysis.
(§1) On the day of the experiments, cells were starved for 5 h with appropriate culture medium. SN56 T48 cells were treated with reference compounds at 100 μM or 1, 10, or 100 μM concentrations of the selected molecules, and 1, 10, and 100 ng/mL of BDNF. Differentiated SH-SY5Y cells were treated with 1, 10, or 100 μM concentrations of the tested molecules and 1, 10, and 100 ng/mL of BDNF for 15 min. For compound specificity, the evaluation cell lines were first pretreated with 1 μM K252a (MilliporeSigma, Saint Louis, MO, USA) for 15 min and then cotreated with 100 μM concentrations of the tested molecules.
(§2) Compound treatment was stopped by lysing cells with N-PER™ Neuronal Protein Extraction Reagent (Thermo Fisher Scientific) containing 1 × PhosSTOP™ (Roche, Basel, Switzerland), 1 × Halt Protease Inhibitor Single-Use Cocktail (ThermoFisher Scientific) and 5 mM EDTA. The lysates were collected by scraping, and centrifuged (8000× g; 10 min at 4 °C), and the protein concentration was determined using a BCA Pierce kit (ThermoFisher Scientific). The lysates were stored at −80 °C until further processing. Samples containing 20 μg of protein were further denatured in 4 × Laemli Buffer with 5% β-mercaptoethanol at 95 °C for 5 min and electrophoresed on gels prepared using a 10% TGX Stain-Free™ FastCast™ Acrylamide Kit (Bio-Rad). Afterwards, the proteins were transferred (wet transfer, 100 V, 60 min) onto nitrocellulose membranes (GE Healthcare, Chicago, IL, USA), which were blocked in 5% BSA in TBS-T (TBS + 0.1% Tween20) for 2 h. […] After repeated washes (TBS-T), the proteins were detected with HRP-conjugated anti-rabbit antibodies (1:4000, RT, 2 h) (Cell Signaling Technology), and the blots were incubated with Clarity Max ECL Western Blotting Substrate (Bio-Rad). Blot images and chemiluminescence signals were captured using a ChemiDoc MP Imaging System, and densitometry values were calculated using the Image Lab software (Bio-Rad). […]

[2] = system: RA-differentiated SH-SY5Y cells; test: Cytoprotection against MPP+-induced cytotoxicity; conditions: MPP+ 0.5 mM, compounds 0.3, 1, 3 μM, BDNF 1, 10, 100 ng/mL, 72 h + 72 h
Description: (§3) To differentiate SH-SY5Y, cells were seeded in a cell culture flask at a density of 10,000 cells/cm^2 in standard growth medium containing 10 μM retinoic acid (RA; MilliporeSigma) and cultured for 7 consecutive days. Then, differentiated cells were harvested by trypsinization (Trypsin-EDTA 1×, 3 min at 37 °C), centrifuged (250× g; 5 min at 25 °C) and counted. The desired experiment cells were seeded in differentiation medium (MEM:Ham’s F12 growth medium +10 μM RA) in multi-well plates at the following densities: 1,000,000 cells/well on a 6-well plate for lysate collection and immunoblot analysis, and 12,000 cells/well into a PDL-treated 96-well plate (BioCoat™, Corning Inc.) for neuroprotection experiments.
The experiment design was adopted from the article published by Presgraves et al., (2004), with the following modifications. Differentiated SH-SY5Y were prepared as described in Section 4.3.1. On the day of the experiment (Day 0), culture medium containing 10 μM RA was changed for treatment medium composed of MEM:HAM’S F12 (1:1 v/v), 1 × Antibiotic-Antimycotic, and 1 × MEM Non-Essential Amino Acids, with the FBS reduced to 0.5%. In this step, RealTime-Glo™ reagents (Promega, Madison, WI, USA) were added to the treatment medium (to a final concentration of 0.5 × ). Cell viability was measured after 1 h of incubation at 37 °C using a luminometer (VICTOR Light 1420-060) for normalization. Then, the tested compounds and BDNF were diluted in culturing medium as 2 × concentrate (final concentrations of 0.3, 1, and 3 μM for the small molecular compounds and 1, 10, and 100 ng/mL for BDNF) and added into wells for 72 h of incubation (volume, 100 μL/well). Then (Day 3), the treatment medium was replaced with fresh medium containing 0.5 × RealTime-Glo™ reagents (volume, 100 μL/well), and the cell viability was measured for normalization. Then, compounds and BDNF were added as 4 × concentrates (volume, 50 μL/well). In addition, MPP^+ was also diluted in treatment medium and added to the wells as a 4 × concentrate (final concentration, 0.5 mM; volume, 50 μL/well). The cells were incubated for a further 72 h at 37 °C. On Day 6, the cell viability was measured 1 h after replacing the medium with the medium containing 0.5 × RealTime-Glo™ (volume 100 μL/well). The experiments were performed with three biological independent replicates, and the final cell viability (endpoint, Day 6) was normalized to the normalized cell viability calculated on Day 3.

[3] = system: TrkB and downstream proteins (PLCγ1, Akt1, ERK1/2); test: Downstream signaling immunoblot, RA-differentiated SH-SY5Y cell line; conditions: for Phosphorylation of TrkB and downstream proteins (PLCγ1, Akt1, ERK1/2): RA-differentiated SH-SY5Y, 1, 10, 100 μM, 15 min
Description: The SH-SY5Y cell line was purchased from MilliporeSigma and cultured in growth medium: MEM (w/Earle’s Salts; w/L-Glutamine) + Ham’s F12 (w/L-Glutamine) (1:1 v/v), 1 × Antibiotic-Antimycotic, 1 × MEM Non-Essential Amino Acids (all reagents from Biowest, Riverside, MO, USA) and 15% FBS (Gibco, Thermo Fisher Scientific, Waltham, MA, USA). Cells were passaged using 0.25% Trypsin-EDTA (Biowest) and cultured in standard conditions (5% CO2, 37 °C with 95% relative humidity).
as §3, §1, §2

Molecule	Phosphorylation of TrkB and downstream proteins (PLCγ1, Akt1, ERK1/2) [1]	Cytoprotective effect (cell viability) [2]	Phosphorylation of TrkB and downstream proteins (PLCγ1, Akt1, ERK1/2) [3]	Effect of cotreatment with K252a on the compound's effects ([3]; K252a 1 μM)	Activation of downstream proteins (Akt1 and ERK1/2) after inhibition of TrkB kinase by K252a ([1]; K252a 1 μM 15 min before 100 μM compound)	Cytoprotective effect (cell viability) ([2]; listed as CPL503051)
O=c1cc(-c2ccccc2)oc2c(O)c(O)ccc12 [7,8-DHF, 7,8-dihydroxyflavone]	did not induce; also recorded: lack of 7,8-DHF activity	not able to protect; also recorded: not able to confirm any cytoprotective action	did not result in the expected effect; also recorded: lack of 7,8-DHF activity	–	–	–
C=CC(C)(C)c1[nH]c2ccccc2c1C1=C(O)C(=O)C(c2c[nH]c3c(CC=C(C)C)cccc23)=C(O)C1=O [DMAQ-B1]	–	did not demonstrate any cytoprotective effect	able to induce the phosphorylation of TrkB, Akt1, ERK1/2, and PLCγ1	did not inhibit	–	–
O=C1C(O)=C(c2c[nH]c3ccccc23)C(=O)C(O)=C1c1c[nH]c2ccccc12 [CPL503052, didemethylasterriquinone D]	demonstrated the activation of the TrkB receptor and phosphorylation of relevant downstream proteins	no cytoprotective properties	able to induce the phosphorylation of TrkB, Akt1, ERK1/2, and PLCγ1	–	did not repress	did not demonstrate any cytoprotective effect
B1	significantly increased phosphorylation	dose-dependent cytoprotective effect	induced the TrkB receptor and phosphorylation of downstream proteins	–	–	–
